In US6255497A, “Method for the inhibition of ALDH-I useful in the treatment of alcohol dependence or alcohol abuse” (priority 1998, dated 2001):
≈ marks a conversion by molar mass, not a printed value. Read-outs that look alike come from different tables or passages of the source.

Tests used:
[1] = test system: class I ADH isozymes containing at least one γ-subunit; conditions: cited from earlier work
human class IV ADH = conditions: cited from earlier work
[2] = intravenous, mice; cited from earlier work
ADH isozymes = experiment: Inhibition of ADH; format: biochemical, human
[3] = two human volunteers, after 60 hours; cited from earlier work
ALDH-I or ALDH-II = experiment: Survey of structurally related compounds for ALDH inhibition; format: biochemical, human
Experimental: For the study of the inhibition of ALDH-I by structurally related compounds to generate the data shown in Tables IV and V, each individual compound was dissolved at different concentrations in methanol and was added to the assay medium as 10 μL aliquots. For controls, 10 […] of methanol was added to the assay medium. In a standard ALDH-I assay, the assay medium contains 0.1 M sodium pyrophosphate pH 9.5, 0.15 M KCl, 1 mM NAD^+, 1% methanol, 5 μM acetaldehyde, 5-10 nM ALDH-I and various concentrations of inhibitor. The enzyme reaction rates were measured by monitoring the production of NADH at 340 nm (ε=6.22 mM^-1 cm^-1) with a Varian Cary 219 spectrophotometer thermostated at 25° C. (Fong et al., 1989, supra). The inhibition of ALDH-I by the inhibitors was calculated as: [formula]
where Vo is the enzyme reaction rate measured in the absence of inhibitor, and where Vi is the enzyme reaction rate measured in the presence of inhibitor. […] IC50 values are related to the underlying Ki values.

ALDH-II [4] = conditions: high Km cytosolic isozyme; cited from earlier work
ALDH-I [5] = conditions: cited from earlier work
[6] = cited from earlier work
[7] = test system: dopamine-β-hydroxylase, microsomal mixed function oxidases and other sulfhydryl-containing enzymes; conditions: cited from earlier work
euphoria = conditions: double-blind study in humans; cited from earlier work
ALDH [8] = conditions: cited from earlier work
alcohol consumption [9] = conditions: placebo-controlled clinical trials; cited from earlier work
golden hamsters = experiment: Dose effect on free choice ethanol intake in golden hamsters, i.p.; format: in vivo, golden hamster
Description: It is common practice in quantitative drug studies with rodents to use intraperitoneal (i.p.) administration to deliver drug doses accurately (Goodman and Gilman, 1975, The Pharmacological Basis of Therapeutics, 5th ed., Macmillan, N.Y., p. 8). In particular, this method avoids variability introduced by technical difficulties of oral administration via feeding (full versus empty stomach, etc.), variations in drug transport in the gastrointestinal tract (variations in intestinal fauna and flora, individual variations in absorption rate expected of outbred animals, etc.) and other factors. […] As a control 1 ml of sterile saline was injected i.p. daily during the baseline period (typically 7-9 days) that establishes drinking preference without the drug. Saline injection i.p. had no effect on the drinking behavior of golden hamsters. Ethanol was provided as a 20% solution. Hamsters could be used more than once (but were not used more than three times) in a cycle of baseline saline injections followed by drug injections, each cycle with the drug at a different dose.
The response to daidzin treatment was computed as:
% Response=(Vo -Vd)×100/Vo

ALDH-II [10] = biological target: T1, ALDH-II (Homo sapiens, UniProt P00352); experiment: Competitive inhibition of ALDH-II with acetaldehyde as substrate; format: biochemical; design: A liver sample (50 g wet weight) with the usual Caucasian ALDH phenotype (both ALDH-I and ALDH-II present); from tissue; host or cells: human liver (autopsy), purified by CM-52, AMP-agarose and DEAE HPLC; conditions: acetaldehyde as substrate, competitive; read-out: Ki, ALDH-II
T1 sequence (P00352 1-501): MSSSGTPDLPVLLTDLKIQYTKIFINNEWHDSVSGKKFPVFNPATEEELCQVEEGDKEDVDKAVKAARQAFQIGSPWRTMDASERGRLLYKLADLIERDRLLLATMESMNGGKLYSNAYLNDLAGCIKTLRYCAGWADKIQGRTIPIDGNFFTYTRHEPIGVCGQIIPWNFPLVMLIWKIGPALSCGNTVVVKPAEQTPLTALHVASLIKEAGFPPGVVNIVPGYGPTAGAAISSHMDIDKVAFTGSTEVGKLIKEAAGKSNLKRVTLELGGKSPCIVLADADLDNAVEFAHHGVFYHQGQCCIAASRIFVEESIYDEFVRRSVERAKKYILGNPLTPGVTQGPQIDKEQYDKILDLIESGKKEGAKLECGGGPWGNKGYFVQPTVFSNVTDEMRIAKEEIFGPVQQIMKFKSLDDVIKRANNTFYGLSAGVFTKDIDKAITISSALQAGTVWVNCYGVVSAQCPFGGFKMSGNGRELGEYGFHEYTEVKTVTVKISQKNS

physchem = conditions: water
[11] = Plasma drug concentration versus time after a single 10 mg dose; format: in vivo; conditions: golden hamster
Description: Five hours later the plasma concentrations of both inhibitors were still above […], far above their competitive inhibition constants for ALDH-I.

ALDH-I [12] = biological target: T2, ALDH-I (Homo sapiens, UniProt P05091); experiment: Competitive inhibition of ALDH-I with acetaldehyde as substrate, progress curve method; format: biochemical; design: A liver sample (50 g wet weight) with the usual Caucasian ALDH phenotype (both ALDH-I and ALDH-II present); from tissue; host or cells: human liver (autopsy), purified by CM-52, AMP-agarose and DEAE HPLC
T2 sequence (P05091 18-517): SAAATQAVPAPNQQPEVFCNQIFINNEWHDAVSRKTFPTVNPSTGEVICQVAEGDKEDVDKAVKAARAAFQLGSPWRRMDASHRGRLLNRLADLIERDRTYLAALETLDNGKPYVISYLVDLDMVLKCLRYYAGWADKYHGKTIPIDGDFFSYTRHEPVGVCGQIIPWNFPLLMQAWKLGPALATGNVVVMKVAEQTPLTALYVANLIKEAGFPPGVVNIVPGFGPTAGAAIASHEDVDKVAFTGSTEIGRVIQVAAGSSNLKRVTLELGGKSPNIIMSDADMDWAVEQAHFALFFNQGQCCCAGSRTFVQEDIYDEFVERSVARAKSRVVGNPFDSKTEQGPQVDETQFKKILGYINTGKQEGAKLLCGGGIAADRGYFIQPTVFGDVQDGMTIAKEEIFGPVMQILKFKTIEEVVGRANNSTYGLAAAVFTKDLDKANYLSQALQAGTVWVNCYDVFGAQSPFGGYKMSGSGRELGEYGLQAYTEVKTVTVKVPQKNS
Description: The progress curve method described by Klyosov and Berezin, 1972, Biokhimiya (Engl. transl.), Plenum, New York, 22: 141-151, was used instead of the initial velocilty method of Example 3 to obtain precis* values for inhibition constants for ALDH-I with acetaldehyde as substrate and the very tight binding novel inhibitors (Table VI).

alcohol consumption [13] = conditions: rat, in vivo; cited from earlier work
[14] = experimental animals; cited from earlier work
ALDH-I [15] = conditions: via reactive product of catabolism; cited from earlier work
ALDH-II [16] = conditions: cited from earlier work
ALDH-II [17] = conditions: via reactive product of catabolism; cited from earlier work
ALDH-I [18] = conditions: cited from earlier work; remark: listed apart in the source
ALDH [19] = conditions: cited from earlier work; remark: listed apart in the source
[20] = substrate: C=O; experiment: purified protein, by the assay type; conditions: pH 9.5; 25.0 °C
Experimental: The inhibition kinetics were studied by the initial velocity method (Dixon and Webb, 1979, Enzymes, 3rd ed., Longman, Great Britain). […] The initial reaction rates were measured in a pH 9.5 assay medium 0.1 11 in glycine-NaOH, 0. […] The enzyme reaction rates were followed by monitoring the production of NADH at 340 nm (ε-6.22 mM^-1 cm^-1) with a Varian Cary 219 spectrophotometer thermostated at 25° C. The kinetic data were analyzed by standard graphical methods.

C[C@]12CC[C@H]3[C@@H](CCC4=CC(=O)CC[C@@]43C)[C@@H]1CC[C@@H]2O [testosterone]
selective inhibition of γ-subunit class I ADH [1]: selectively inhibited

CCO [ethanol]
Km (human class IV ADH): 41 mM

O=c1c(-c2ccc(O)cc2)coc2cc(O)ccc12 [Daidzein]
half-life [2]: on the order of one hour
ADH inhibition (ADH isozymes): selectively inhibits certain ADH isozymes
excretion in urine and feces [3]: little daidzein had appeared in urine and feces after 60 hours
ALDH inhibition (ALDH-I or ALDH-II): does not inhibit ALDH

CCN(CC)C(=S)SSC(=S)N(CC)CC [disulfiram, tetraethylthiuram disulfide]
inhibition of ALDH-II in vitro (ALDH-II [4]): potent inhibitor
inhibition of ALDH-I in vitro (ALDH-I [5]; major mitochondrial isozyme): only slightly
inhibition of ALDH-I in vitro in presence of mercaptans (ALDH-I [5]; trace amounts of 2-mercaptoethanol or methanethiol): inactivated
skin toxicity and neuropathy ([6]; in vivo): peripheral neuropathy
specificity of enzyme inhibition [7]: broadly acting but non-specific inhibitor
effect with low doses of alcohol (euphoria): induces and enhances euphoria
reversibility of ALDH inhibition in vivo (ALDH [8]): irreversible
time over which ALDH is inhibited in vivo (ALDH [8]): 12 h
time to restoration of ALDH activity (ALDH [8]; in vivo, de novo enzyme synthesis): ≥ 6 days
reduction of alcohol consumption vs placebo (alcohol consumption [9]): no more effective than the placebo control

O=C(O)CCCCCCOc1ccc2c(=O)c(-c3ccc(O)cc3)coc2c1 [Daidzein 7-(ω-carboxyhexyl) ether, daidzein 7-(ω-carboxyhexyl) ether]
suppression of alcohol intake, hamster B7 (golden hamsters; 10 mg/day, i.p., trained hamster B7): 69%
suppression of alcohol intake, hamster E23 (golden hamsters; 10 mg/day, i.p., trained hamster E23): 72%
potency relative to daidzin, suppression of alcohol intake (golden hamsters; assuming a dose response slope similar to that of daidzin): not more than twice as potent as daidzin
Ki (ALDH-II [10]): 215 nM
solubility (physchem): 13 mM (≈ 4970 µg/mL)
time to maximal plasma concentration after injection ([11]; i.p.): within about an hour after injection
Cmax ([11]; plasma, ip, read-out: maximal plasma concentration): 4.5 µM
Ki (ALDH-I [12]): 9 nM

CCOc1ccc2c(=O)c(-c3ccc(O)cc3)coc2c1 [Daidzein 7-ethyl ether]
Ki (ALDH-II [10]): 440 nM
Ki (ALDH-I [12]): 38 nM

N#CN [cyanamide]
alcohol consumption after alcohol deprivation (alcohol consumption [13]): increase in alcohol consumption
antithyroid activity [14]: significant antithyroid activity
inhibition of ALDH-I in vivo (ALDH-I [15]): inhibits both isozymes
liver injury ([6]; alcoholics treated with cyanamide): liver injury, including generation of ground-glass inclusion bodies in liver cells
cardiotoxic effects ([6]; in vivo): cardiotoxic effects, including hypotension and even cardiac death
inhibition of ALDH-II in vitro (ALDH-II [16]): Neither ALDH-I (the low Km isozyme) nor ALDH-II (the high Km isozyme) are inhibited in vitro
inhibition of ALDH-II in vivo (ALDH-II [17]): inhibits both isozymes
effect with low doses of alcohol (euphoria): induces and enhances euphoria
inhibition of ALDH-I in vitro (ALDH-I [18]): Neither ALDH-I (the low Km isozyme) nor ALDH-II (the high Km isozyme) are inhibited in vitro
reversibility of ALDH inhibition (ALDH [19]; in vivo): reversible
time of maximal ALDH inhibition after drug administration (ALDH [19]; in vivo): 1 to 2 h
restoration of ALDH activity within 24 hours (ALDH [19]; within 24 hours): 80%

B1: human ALDH-II (Homo sapiens) (protein)
chain: T1 sequence (P00352 1-501)
Km [20]: 6.6 mM
